Source: patent publication US8716303B2, “N-(hetero)aryl-pyrrolidine derivatives of pyrazol-4-yl-pyrrolo[2,3-d]pyrimidines and pyrrol-3-yl-pyrrolo[2,3-d]pyrimidines as janus kinase inhibitors” (Incyte Corporation, priority 2009, dated 2014)

What was measured:
[1] = target: T1, human JAK1 (a.a. 837-1142) (Homo sapiens, UniProt P23458); test: In vitro JAK kinase assay (HTRF, phosphorylation of a biotinylated peptide), JAK1; format: biochemical; conditions: Assay Conditions 1 mM ATP
T1 construct: human JAK1 (a.a. 837-1142); His tag (N); made in house; host or cells: insect cells (baculovirus)
Outline: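 His-tagged catalytic domains (JAK1 a.a. 837-1142, JAK2 a.a. 828-1132) from insect cells phosphorylate 500 nM biotinylated peptide in 50 mM Tris pH 7.8, 100 mM NaCl, 5 mM DTT; ATP at Km (90 μM JAK1, 30 μM JAK2) or 1 mM, as indicated. 1 h at RT; EDTA stop, HTRF readout; IC50s.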

Jak2 (a.a. 828-1132) = target: T2, Jak2 (a.a. 828-1132) (Homo sapiens, UniProt O60674); test: In vitro JAK kinase assay (HTRF, phosphorylation of a biotinylated peptide), JAK2, reported as JAK2/JAK1 ratio; format: biochemical; conditions: Assay Conditions 1 mM ATP
T2 construct: Jak2 (a.a. 828-1132); His tag (N); made in house; host or cells: insect cells (baculovirus)
T2 sequence (O60674 828-1132): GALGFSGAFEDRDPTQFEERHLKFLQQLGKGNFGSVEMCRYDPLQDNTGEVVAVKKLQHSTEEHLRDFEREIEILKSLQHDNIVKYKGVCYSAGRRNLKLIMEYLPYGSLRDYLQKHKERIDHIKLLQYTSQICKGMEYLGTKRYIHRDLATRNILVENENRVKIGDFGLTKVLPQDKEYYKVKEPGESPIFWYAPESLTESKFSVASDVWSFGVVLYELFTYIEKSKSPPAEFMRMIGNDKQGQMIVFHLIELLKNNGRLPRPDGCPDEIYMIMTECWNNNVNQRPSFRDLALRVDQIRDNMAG

T1 sequence (P23458 849-1154): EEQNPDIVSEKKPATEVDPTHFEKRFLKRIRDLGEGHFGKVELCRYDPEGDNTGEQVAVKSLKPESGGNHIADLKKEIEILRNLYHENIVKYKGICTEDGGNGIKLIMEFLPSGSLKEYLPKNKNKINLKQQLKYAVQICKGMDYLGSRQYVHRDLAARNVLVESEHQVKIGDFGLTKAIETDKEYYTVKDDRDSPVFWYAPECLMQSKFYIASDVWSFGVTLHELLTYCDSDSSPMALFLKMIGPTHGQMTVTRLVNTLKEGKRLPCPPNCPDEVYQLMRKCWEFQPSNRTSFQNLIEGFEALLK

| SMILES | IC50 [1] [nM] | JAK2/JAK1 IC50 ratio (Jak2 (a.a. 828-1132)) |
| --- | --- | --- |
| CN(C)S(=O)(=O)Nc1nccc(N2CCC(C(CC#N)n3cc(-c4ncnc5[nH]ccc45)cn3)C2)n1 (single isomer, unassigned) [Example 151, N-[4-(3-{2-cyano-1-[4-(7H-pyrrolo[2,3-d]pyrimidin-4-yl)-1H-pyrazol-1-yl]ethyl}pyrrolidin-1-yl)pyrimidin-2-yl]-N,N-dimethylsulfonamide] | < 50 | 12.5 |
| CNC(=O)c1cc(N2CCC(C(CC#N)n3cc(-c4ncnc5[nH]ccc45)cn3)C2)ccn1 (single isomer, unassigned) [Example 152, 4-(3-{2-cyano-1-[4-(7H-pyrrolo[2,3-d]pyrimidin-4-yl)-1H-pyrazol-1-yl]ethyl}pyrrolidin-1-yl)-N-methylpyridine-2-carboxamide] | < 50 | 6.7 |
| CN(C)C(=O)c1cc(N2CCC(C(CC#N)n3cc(-c4ncnc5[nH]ccc45)cn3)C2)ccn1 (single isomer, unassigned) [Example 153, 4-(3-{2-cyano-1-[4-(7H-pyrrolo[2,3-d]pyrimidin-4-yl)-1H-pyrazol-1-yl]ethyl}pyrrolidin-1-yl)-N,N-dimethylpyridine-2-carboxamide] | < 50 | >11.1 |
| N#CCC(C1CCN(c2ccnc(C(=O)Nc3ccccc3)c2)C1)n1cc(-c2ncnc3[nH]ccc23)cn1 (single isomer, unassigned) [Example 154, 4-(3-{2-cyano-1-[4-(7H-pyrrolo[2,3-d]pyrimidin-4-yl)-1H-pyrazol-1-yl]ethyl}pyrrolidin-1-yl)-N-phenylpyridine-2-carboxamide] | < 50 | >11.8 |
| N#CCC(C1CCN(c2ccc3c(n2)OCC3)C1)n1cc(-c2ncnc3[nH]ccc23)cn1 (single isomer, unassigned) [Example 155, 3-[1-(2,3-dihydrofuro[2,3-b]pyridin-6-yl)pyrrolidin-3-yl]-3-[4-(7H-pyrrolo[2,3-d]pyrimidin-4-yl)-1H-pyrazol-1-yl]propanenitrile] | 50 to 100 | 5.3 |
| N#CCC(C1CCN(c2ccc3ccsc3n2)C1)n1cc(-c2ncnc3[nH]ccc23)cn1 (single isomer, unassigned) [Example 156, 3-[4-(7H-pyrrolo[2,3-d]pyrimidin-4-yl)-1H-pyrazol-1-yl]-3-(1-thieno[2,3-b]pyridin-6-ylpyrrolidin-3-yl)propanenitrile] | < 50 | 8.0 |
| N#CCC(C1CCN(c2ccc3c(n2)C(F)(F)CC3)C1)n1cc(-c2ncnc3[nH]ccc23)cn1 (single isomer, unassigned) [Example 157, 3-[1-(7,7-difluoro-6,7-dihydro-5H-cyclopenta[b]pyridin-2-yl)pyrrolidin-3-yl]-3-[4-(7H-pyrrolo[2,3-d]pyrimidin-4-yl)-1H-pyrazol-1-yl]propanenitrile bis(trifluoroacetate)] | < 50 | >5.3 |

More lines, now with the values ahead:

| IC50 [1] [nM] | JAK2/JAK1 IC50 ratio (Jak2 (a.a. 828-1132)) | SMILES |
| --- | --- | --- |
| < 50 | 22.5 | N#CCC(C1CCN(c2nc3cccc(F)c3o2)C1)n1ccc(-c2ncnc3[nH]ccc23)c1 (single isomer, unassigned) [Example 158-1, 3-[1-(7-fluoro-1,3-benzoxazol-2-yl)pyrrolidin-3-yl]-3-[3-(7H-pyrrolo[2,3-d]pyrimidin-4-yl)-1H-pyrrol-1-yl]propanenitrile] |
| < 50 | 19.0 | N#CCC(C1CCN(c2nc3cccc(F)c3o2)C1)n1ccc(-c2ncnc3[nH]ccc23)c1 (single isomer, unassigned) [Example 158-2, 3-[1-(7-fluoro-1,3-benzoxazol-2-yl)pyrrolidin-3-yl]-3-[3-(7H-pyrrolo[2,3-d]pyrimidin-4-yl)-1H-pyrrol-1-yl]propanenitrile] |
| < 50 | 12.9 | N#CCC(C1CCN(c2nc3cccc(Br)c3o2)C1)n1cc(-c2ncnc3[nH]ccc23)cn1.O=C(O)C(F)(F)F (single isomer, unassigned) [Example 159, 3-[1-(7-bromo-1,3-benzoxazol-2-yl)pyrrolidin-3-yl]-3-[4-(7H-pyrrolo[2,3-d]pyrimidin-4-yl)-1H-pyrazol-1-yl]propanenitrile trifluoracetate] |
